From patent publication US20260297042A1, “BIARYLAMIDE DERIVATIVES AND THEIR USE AS PKMYT1 INHIBITORS” (CANCER RESEARCH TECHNOLOGY LIMITED, priority 2023, published 2026)

Legend:
Human PKMYT1 = target: T1, Human PKMYT1 (Homo sapiens, UniProt Q99640); test: PKMYT1 biochemical ADP-Glo enzymatic assay; settings: ADP-Glo
T1 construct: Human PKMYT1 75-362 was cloned as a TEV cleavable 6xHis fusion; 6xHis (TEV cleavable) (cleaved yes); made in house; host or cells: bacterial cells
T1 sequence (Q99640 75-362): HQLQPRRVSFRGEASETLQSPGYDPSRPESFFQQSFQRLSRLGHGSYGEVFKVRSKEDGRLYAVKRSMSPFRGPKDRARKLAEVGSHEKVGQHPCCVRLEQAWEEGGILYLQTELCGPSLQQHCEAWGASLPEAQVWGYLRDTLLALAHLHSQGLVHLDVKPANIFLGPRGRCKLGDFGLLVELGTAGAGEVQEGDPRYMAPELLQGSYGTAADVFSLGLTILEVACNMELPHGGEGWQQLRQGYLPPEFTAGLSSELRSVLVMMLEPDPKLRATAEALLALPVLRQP
Method: Human PKMYT1 75-362 was cloned as a TEV cleavable 6xHis fusion in bacterial cells. After purification on a Ni++HiTrap Chelating HP column, the His-tag was cleaved using TEV protease. Cleaved PKMYT1 was further purified on a Superdex 200 16/600 sizing column. The fractions containing PKMYT1 were pooled and concentrated using an ultrafiltration centrifugal protein concentrator. The purified protein was aliquoted, flash frozen in liquid nitrogen, and stored at −80° C.
PKMYT1 biochemical assay: Inhibition of PKMYT1 was assessed using the ADP-Glo™ Max Detection System from Promega. This assay detects the production of ADP from ATP by PKMYT1 via a two-step process ultimately involving the conversion of ADP to ATP with the latter converted to light in a coupled reaction with luciferase/luciferin. Inhibition of PKMYT1 by small molecule inhibitors results in a retardation of luminescence above background. The intrinsic ATPase activity of PKMYT1 was assessed according to the following protocol. Compounds were dosed into Corning white low volume 384 well assay plates using an Echo acoustic dispenser to generate 10-point curves spanning a 3-fold dilution series. DMSO (no inhibitor) control wells were prepared to benchmark the maximum and minimum signals in the presence and absence of PKMYT1, respectively. The PKMYT1 kinase domain was purified in-house, as described above, and added to the wells at a final concentration of 15 nM in a buffer of 50 mM HEPES (pH 7.5), 10 mM MgCl2, 1 mM EGTA, 0.01% Brij-35, 1% DMSO. 500 µM ATP was added to start the reaction with the final assay volume being 4 μl. The plate was then incubated for 60 minutes at 26° C. before the addition of 4 μl of ADP-Glo Reagent to stop the reaction and deplete the unconsumed ATP. Following a further 60 minute incubation the assay signal was developed by the addition of 8 μl ADP-Glo Max Detection Reagent. After 60 minutes the luminescence signal was read on a PHERAStar FS microplate reader (BMG Labtech).
(§1) Data analysis: Data was captured and analysed within the Dotmatics Studies software module where dose response curves were generated and IC50 values determined. Acceptance and verification of data followed strict in-house business rules which are summarised as follows. […] Technical and biological replicates of each compound are routinely tested and replicate IC50 values must fall within 3-fold of each other with dose response curves showing ‘goodness of fit’ r2 values >0.9. Failure to meet any of these defined criteria result in rejection of data.

WEE1 = target: T2, WEE1 (Homo sapiens, UniProt P30291); test: Selectivity versus WEE1 assay (ADP-Glo enzymatic assay); format: biochemical; settings: for IC50: ADP-Glo; for PKMYT1 vs. WEE1 selectivity: fold difference in selectivity for PKMYT1 over WEE1
T2 construct: purchased Thermo Fisher PR7373A
Method: Selectivity versus WEE1 assay: Selectivity was established using the same format as outlined for PKMYT1. After dosing of compounds via the Echo acoustic dispenser—as described above—WEE1 (Thermo Fisher PR7373A) was added to each well at a final concentration of 15 nM in a buffer of 50 mM HEPES (pH 7.5), 10 mM MgCl2, 1 mM EGTA, 0.01% Brij-35, 1% DMSO. 30 µM ATP was added to start the reaction with the final assay volume being 4 μl. The plate was then incubated for 60 minutes at 26° C. before the addition of 4 μl of ADP-Glo Reagent. Following a further 60 minute incubation the assay signal was developed by the addition of 8 μl ADP-Glo Detection Reagent. After 60 minutes the luminescence signal was read on a PHERAStar FS microplate reader (BMG Labtech).
as §1

[1] = PKMYT1 kinase domain 15 nM, banded values
[2] = 15 nM PKMYT1 kinase domain, 500 µM ATP, 60 minutes at 26° C., banded
[3] = 15 nM WEE1, 60 minutes at 26° C., banded
[4] = banded, ">N" = at least in this band but could be higher

T2 sequence (P30291 whole entry): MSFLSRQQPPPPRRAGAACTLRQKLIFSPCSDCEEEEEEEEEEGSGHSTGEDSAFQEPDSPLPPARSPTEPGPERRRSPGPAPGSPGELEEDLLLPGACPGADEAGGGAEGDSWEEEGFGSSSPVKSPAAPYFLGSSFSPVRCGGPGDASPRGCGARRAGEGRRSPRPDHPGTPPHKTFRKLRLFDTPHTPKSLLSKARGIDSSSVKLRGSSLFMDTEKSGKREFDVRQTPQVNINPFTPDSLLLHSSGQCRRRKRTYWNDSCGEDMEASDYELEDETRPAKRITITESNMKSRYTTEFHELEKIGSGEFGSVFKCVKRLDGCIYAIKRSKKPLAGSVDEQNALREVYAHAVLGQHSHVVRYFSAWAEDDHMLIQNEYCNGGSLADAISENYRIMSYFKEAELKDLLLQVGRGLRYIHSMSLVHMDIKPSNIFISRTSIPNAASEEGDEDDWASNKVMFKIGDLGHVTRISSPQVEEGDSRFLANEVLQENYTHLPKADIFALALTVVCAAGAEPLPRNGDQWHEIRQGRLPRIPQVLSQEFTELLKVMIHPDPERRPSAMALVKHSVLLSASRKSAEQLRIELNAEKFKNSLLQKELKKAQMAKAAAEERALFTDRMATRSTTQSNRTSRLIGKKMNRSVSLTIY

Compound	IC50 (Human PKMYT1; [1]) [nM]	IC50 (WEE1; WEE1 15 nM, banded values) [nM]	PKMYT1 vs. WEE1 selectivity (WEE1; banded)	IC50 (Human PKMYT1; [2]) [nM]	IC50 (WEE1; [3]) [nM]	PKMYT1 vs. WEE1 selectivity (WEE1; [4])
Cc1ccc(O)c(C)c1NC(=O)c1cnc(Nc2cccc3cccnc23)s1 [BAA-487, N-(3-hydroxy-2,6-dimethylphenyl)-2-(quinolin-8-ylamino) thiazole-5-carboxamide]	50 to 1000	> 11000	X (100-<1000 fold)			
Cc1ccc(O)c(C)c1NC(=O)c1cnc(Nc2cc3n(n2)CCN(C)C3=O)s1 [BAA-250, N-(3-hydroxy-2,6-dimethylphenyl)-2-((5-methyl-4-oxo-4,5,6,7-tetrahydropyrazolo[1,5-a]pyrazin-2-yl)amino)thiazole-5-carboxamide]				< 50	> 11000	X (100-<1000 fold)
Cc1ccc(O)c(C)c1NC(=O)c1cnc(NCCCN2CCN(C(=O)OC(C)(C)C)CC2)s1 [BAA-073, tert-butyl 4-[3-[[5-[(3-hydroxy-2,6-dimethyl-phenyl)carbamoyl]thiazol-2-yl]amino]propyl]piperazine-1-carboxylate]				50 to 1000	> 11000	>X (100-<1000 fold)
Cc1ccc(O)c(C)c1NC(=O)c1cnc(NCc2cc3ccccc3[nH]2)s1 [BAA-357, 2-(((1H-indol-2-yl)methyl)amino)-N-(3-hydroxy-2,6-dimethylphenyl)thiazole-5-carboxamide]				50 to 1000	> 11000	X (100-<1000 fold)
Cc1ccc(O)c(C)c1NC(=O)c1cnc(Nc2c(C)cnn2Cc2cccc(F)c2)s1 [BAA-375, 2-((1-(3-Fluorobenzyl)-4-methyl-1H-pyrazol-5-yl)amino)-N-(3-hydroxy-2,6-dimethylphenyl)thiazole-5-carboxamide]				1000 to 11000	> 11000	W (10-<100 fold)
O=C(Nc1c(Cl)ccc(O)c1F)c1cnc(Nc2ccn(CC(=O)N3CCCC3)n2)s1 [BAA-481, N-(6-Chloro-2-fluoro-3-hydroxy-phenyl)-2-[[1-(2-oxo-2-pyrrolidin-1-yl-ethyl)pyrazol-3-yl]amino]thiazole-5-carboxamide]	< 50	> 11000	Y (1000-5000 fold)			
Cc1ccc(O)c(C)c1NC(=O)c1cnc(Nc2ccn(CC(=O)N3CCN(S(C)(=O)=O)CC3)n2)s1 [BAA-142]				< 50	> 11000	X (100-<1000 fold)
Cc1c(O)ccc(Br)c1NC(=O)c1cnc(Nc2ccn(CC(=O)N3CCCC3)n2)s1 [BAA-519, N-(6-Bromo-3-hydroxy-2-methyl-phenyl)-2-[[1-(2-oxo-2-pyrrolidin-1-yl-ethyl)pyrazol-3-yl]amino]thiazole-5-carboxamide]	< 50	> 11000	X (100-<1000 fold)			
Cc1ccc(O)c(C)c1NC(=O)c1cnc(Nc2ccn(CCN)n2)s1 [BAA-053, 2-[[1-(2-Aminoethyl)pyrazol-3-yl]amino]-N-(3-hydroxy-2,6-dimethyl-phenyl)thiazole-5-carboxamide]				50 to 1000	1000 to 11000	W (10-<100 fold)
Cc1ccc(O)c(C)c1NC(=O)c1cnc(Nc2ccnc(-c3ccc(F)cc3)c2)s1 [BAA-304, 2-((2-(4-fluorophenyl)pyridin-4-yl)amino)-N-(3-hydroxy-2,6-dimethylphenyl)thiazole-5-carboxamide]				50 to 1000	> 11000	X (100-<1000 fold)
Cc1ccc(O)c(C)c1NC(=O)c1cnc(Nc2cccc(S(C)(=O)=O)c2)s1 [BAA-276, N-(3-hydroxy-2,6-dimethylphenyl)-2-((3-(methylsulfonyl)phenyl)amino)thiazole-5-carboxamide]				< 50	> 11000	Y (1000-5000 fold)
Cc1nc2cc(Nc3ncc(C(=O)Nc4c(C)ccc(O)c4C)s3)ccc2o1 [BAA-445, N-(3-hydroxy-2,6-dimethylphenyl)-2-((2-methylbenzo[d]oxazol-5-yl)amino)thiazole-5-carboxamide]	50 to 1000	1000 to 11000	X (100-<1000 fold)			
Cc1ccc(O)c(C)c1NC(=O)c1cnc(Nc2ccn([C@@H]3CCOC3)n2)s1 [BAA-037]				50 to 1000	> 11000	>X (100-<1000 fold)
COc1cncnc1Nc1ncc(C(=O)Nc2c(C)ccc(O)c2C)s1 [BAA-559, N-(3-hydroxy-2,6-dimethylphenyl)-2-((5-methoxypyrimidin-4-yl)amino)thiazole-5-carboxamide]	< 50	1000 to 11000	X (100-<1000 fold)			
Cc1ccc(O)c(C)c1NC(=O)c1cnc(Nc2ccc3cc(Br)cnc3n2)s1 [BAA-298, 2-((6-bromo-1,8-naphthyridin-2-yl)amino)-N-(3-hydroxy-2,6-dimethylphenyl)thiazole-5-carboxamide]				50 to 1000	> 11000	Y (1000-5000 fold)
Cc1ccc(O)c(C)c1NC(=O)c1cnc(Nc2ccn(CC(=O)N3CCC(F)(F)C3)n2)s1 [BAA-176]				< 50	> 11000	Y (1000-5000 fold)
Cc1ccc(O)c(C)c1NC(=O)c1cnc(Nc2cnn(CC(=O)N3CCCC3)c2C)s1 [BAA-556, N-(3-hydroxy-2,6-dimethylphenyl)-2-((5-methyl-1-(2-oxo-2-(pyrrolidin-1-yl)ethyl)-1H-pyrazol-4-yl)amino)thiazole-5-carboxamide]	50 to 1000	> 11000	X (100-<1000 fold)			
Cc1ccc(O)c(C)c1NC(=O)c1cnc(Nc2cc(Cl)nc(C(F)(F)F)n2)s1 [BAA-287, 2-((6-chloro-2-(trifluoromethyl)pyrimidin-4-yl)amino)-N-(3-hydroxy-2,6-dimethylphenyl)thiazole-5-carboxamide]				< 50	> 11000	Y (1000-5000 fold)
Cc1ccc(O)c(C)c1NC(=O)c1cnc(Nc2sccc2C(N)=O)s1 [BAA-021, 2-[(3-carbamoyl-2-thienyl)amino]-N-(3-hydroxy-2,6-dimethyl-phenyl)thiazole-5-carboxamide]				50 to 1000	> 11000	>X (100-<1000 fold)
Cc1ccc(O)c(C)c1NC(=O)c1cnc(Nc2ncc(C(F)(F)F)o2)s1 [BAA-437, N-(3-hydroxy-2,6-dimethylphenyl)-2-((5-(trifluoromethyl)oxazol-2-yl)amino)thiazole-5-carboxamide]	1000 to 11000	> 11000	W (10-<100 fold)			
Cc1ccc(O)c(C)c1NC(=O)c1cnc(Nc2cc(C(C)(C)C)nn2-c2ccccc2)s1 [BAA-359, 2-((3-(tert-butyl)-1-phenyl-1H-pyrazol-5-yl)amino)-N-(3-hydroxy-2,6-dimethylphenyl)thiazole-5-carboxamide]				1000 to 11000	> 11000	W (10-<100 fold)
